assay: Measurement of pKa from absorption spectra; format: physicochemical; conditions: in acetonitrile, 70% perchloric acid (solvent: acetic acid) added dropwise; proton adduct at nitrogen atom of triazine ring
Procedure: <Method for Measuring pKa>
Compound (1) was dissolved in acetonitrile to give an absorbance of 1 and to this solution, 70% perchloric acid (solvent: acetic acid) was added dropwise, thereby varying the pH. At this time, the absorption spectrum of solution was measured and based on the absorbance at λmax, the proportions of a triazine-free form and a proton adduct were calculated at each pH. From the point at which these values became equal, the pKa value was determined. Here, the triazine-free form indicates Compound (1) itself, and the proton adduct indicates a compound resulting from addition of a proton to the nitrogen atom of triazine ring of Compound (1). […] The absorption spectrum was measured using a spectrophotometer, UV-3600 (trade name), manufactured by Shimadzu Corporation, and the pH was measured using a pH meter, HM60G (trade name), manufactured by To a Denpa Kogyo. Incidentally, the absorbance is a value measured at the maximum absorption wavelength of each compound.

Q: For `COC(=O)c1ccc(-c2nc(-c3ccccc3O)nc(-c3ccc(OC)cc3O)n2)cc1` [Compound (104)], which pKa is on record?
A: -5

Q: Which pKa does the source give for `COc1ccc(-c2nc(-c3ccc(C(=O)OCC(CCCCC(C)C)CCC(C)C)cc3)nc(-c3ccccc3O)n2)c(O)c1` (stereo not shown) [Compound (114)] here?
A: -5

Q: With `CCCCCCCCC(CCCCCC)COC(=O)c1ccc(-c2nc(-c3ccccc3O)nc(-c3ccc(OC)cc3O)n2)cc1` (stereo not shown) [Compound (115)] as the compound, how does the pKa read?
A: -5

Q: With `CCC(C)CCCCCC(CCCC(C)CC)COC(=O)c1ccc(-c2nc(-c3ccccc3O)nc(-c3ccc(OC)cc3O)n2)cc1` (stereo not shown) [Compound (116)] as the compound, how does the pKa read?
A: -5

Q: For `COc1ccc(-c2nc(-c3ccc(C(=O)OCC(CCC(C)CC(C)(C)C)C(C)CC(C)(C)C)cc3)nc(-c3ccccc3O)n2)c(O)c1` (stereo not shown) [Compound (117)], which pKa is on record?
A: -5

Q: For `CCCCCCCCCC(CCCCCCC)COC(=O)c1ccc(-c2nc(-c3ccccc3O)nc(-c3ccc(OC)cc3O)n2)cc1` (stereo not shown) [Compound (118)], which pKa is on record?
A: -5

Q: Which pKa does the source give for `COc1ccc(-c2nc(-c3ccc(C(=O)OCC(CCC(C)CCCC(C)C)C(C)CCCC(C)C)cc3)nc(-c3ccccc3O)n2)c(O)c1` (stereo not shown) [Compound (119)] here?
A: -5
